Our source for the Emax and EC50 values is US20250367166A1, “NEXT GENERATION DIPROVOCIMS THAT ACTIVATE THE INNATE AND ADAPTIVE IMMUNE RESPONSE” (The Scripps Research Institute, priority 2022, published 2025).

The target in test [1] is TLR1/TLR2 (Homo sapiens, UniProt O60603+Q15399). Put plainly: TNF-α release from PMA-differentiated human THP-1 cells (ELISA).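 As to all read-outs here: cells exposed to graded compound concentrations for 4 h, TNF-α quantified in supernatant, LPS as positive and DMSO as negative control, values are duplicate means.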 The settings on record: for Emax: THP-1, 4 h, read-out: Efficacy (magnitude) of response versus diprovocim-1 (100%), THP-1; for EC50: read-out: EC50 (nM) (THP-1): EC50 TNF-α release from human THP-1 cells. For orientation: An ELISA detects its analyte on a solid surface through an enzyme-linked reagent.
Sequence of TLR1/TLR2 (Homo sapiens, UniProt O60603+Q15399) (Q15399 25-786): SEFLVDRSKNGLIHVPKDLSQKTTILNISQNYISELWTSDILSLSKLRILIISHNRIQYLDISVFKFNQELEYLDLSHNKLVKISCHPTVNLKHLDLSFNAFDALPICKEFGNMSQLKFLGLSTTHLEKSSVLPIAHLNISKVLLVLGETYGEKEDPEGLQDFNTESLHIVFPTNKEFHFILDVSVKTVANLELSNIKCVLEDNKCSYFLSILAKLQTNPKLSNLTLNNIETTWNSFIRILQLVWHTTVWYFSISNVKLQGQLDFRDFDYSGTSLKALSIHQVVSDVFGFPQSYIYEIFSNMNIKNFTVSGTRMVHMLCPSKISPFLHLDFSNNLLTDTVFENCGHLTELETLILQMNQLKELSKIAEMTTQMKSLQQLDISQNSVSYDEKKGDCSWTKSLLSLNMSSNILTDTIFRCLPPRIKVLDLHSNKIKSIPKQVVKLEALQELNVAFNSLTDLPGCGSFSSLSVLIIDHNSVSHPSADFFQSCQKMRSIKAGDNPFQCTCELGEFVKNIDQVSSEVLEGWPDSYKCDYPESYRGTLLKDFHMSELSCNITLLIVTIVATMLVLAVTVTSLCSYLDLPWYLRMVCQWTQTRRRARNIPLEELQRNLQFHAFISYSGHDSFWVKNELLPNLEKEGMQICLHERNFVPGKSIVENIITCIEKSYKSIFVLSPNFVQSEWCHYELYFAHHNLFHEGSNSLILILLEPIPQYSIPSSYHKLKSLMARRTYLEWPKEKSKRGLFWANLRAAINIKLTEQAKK
Sequence of TLR1/TLR2 (Homo sapiens, UniProt O60603+Q15399) (O60603 21-784): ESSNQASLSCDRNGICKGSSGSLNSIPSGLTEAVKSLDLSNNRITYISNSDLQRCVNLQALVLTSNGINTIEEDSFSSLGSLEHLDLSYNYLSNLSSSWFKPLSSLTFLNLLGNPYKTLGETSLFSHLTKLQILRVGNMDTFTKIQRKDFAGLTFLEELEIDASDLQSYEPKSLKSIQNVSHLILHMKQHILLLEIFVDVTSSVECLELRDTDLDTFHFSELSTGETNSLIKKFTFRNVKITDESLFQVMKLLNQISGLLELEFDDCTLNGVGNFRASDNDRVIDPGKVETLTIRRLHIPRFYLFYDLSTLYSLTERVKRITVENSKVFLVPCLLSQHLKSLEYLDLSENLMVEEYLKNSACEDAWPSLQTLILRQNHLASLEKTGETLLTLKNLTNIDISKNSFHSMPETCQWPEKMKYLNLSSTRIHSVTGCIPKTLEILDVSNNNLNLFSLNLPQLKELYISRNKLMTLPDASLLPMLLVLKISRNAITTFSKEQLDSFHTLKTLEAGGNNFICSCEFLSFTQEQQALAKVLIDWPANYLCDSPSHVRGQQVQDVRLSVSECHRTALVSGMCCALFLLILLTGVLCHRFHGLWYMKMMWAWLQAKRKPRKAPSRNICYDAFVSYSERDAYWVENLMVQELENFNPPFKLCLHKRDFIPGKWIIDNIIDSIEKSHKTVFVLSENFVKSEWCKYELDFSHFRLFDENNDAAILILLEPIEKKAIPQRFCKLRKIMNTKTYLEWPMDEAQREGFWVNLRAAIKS

The target in test [2] is TLR1/TLR2 (Mus musculus, UniProt Q9EPQ1+Q9QUN7). Put plainly: TNF-α release from thioglycolate-elicited mouse peritoneal macrophages (ELISA). The settings on record: for Emax: 4 h, read-out: Efficacy (magnitude) of response versus diprovocim-1 (100%), mouse macrophages.
Sequence of TLR1/TLR2 (Mus musculus, UniProt Q9EPQ1+Q9QUN7) (Q9EPQ1 26-795): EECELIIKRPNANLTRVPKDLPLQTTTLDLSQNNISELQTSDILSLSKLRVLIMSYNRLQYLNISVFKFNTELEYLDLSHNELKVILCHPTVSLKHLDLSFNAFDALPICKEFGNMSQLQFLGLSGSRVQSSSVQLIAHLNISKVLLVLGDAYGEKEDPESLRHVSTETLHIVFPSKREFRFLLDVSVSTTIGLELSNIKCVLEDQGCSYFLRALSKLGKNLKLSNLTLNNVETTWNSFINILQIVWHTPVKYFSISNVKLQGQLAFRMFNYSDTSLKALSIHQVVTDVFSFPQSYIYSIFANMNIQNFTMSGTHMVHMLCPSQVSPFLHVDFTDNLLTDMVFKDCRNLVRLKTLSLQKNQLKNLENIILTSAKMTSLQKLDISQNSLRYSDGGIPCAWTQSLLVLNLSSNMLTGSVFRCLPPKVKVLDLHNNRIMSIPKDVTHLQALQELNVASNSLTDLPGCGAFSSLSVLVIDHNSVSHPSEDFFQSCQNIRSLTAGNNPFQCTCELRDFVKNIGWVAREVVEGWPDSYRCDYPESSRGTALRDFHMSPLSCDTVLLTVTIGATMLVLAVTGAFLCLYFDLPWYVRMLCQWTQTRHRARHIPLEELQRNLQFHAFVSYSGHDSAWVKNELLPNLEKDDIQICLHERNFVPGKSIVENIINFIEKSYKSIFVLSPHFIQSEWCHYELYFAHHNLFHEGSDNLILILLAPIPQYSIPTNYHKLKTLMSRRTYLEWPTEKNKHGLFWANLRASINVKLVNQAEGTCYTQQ
Sequence of TLR1/TLR2 (Mus musculus, UniProt Q9EPQ1+Q9QUN7) (Q9QUN7 25-784): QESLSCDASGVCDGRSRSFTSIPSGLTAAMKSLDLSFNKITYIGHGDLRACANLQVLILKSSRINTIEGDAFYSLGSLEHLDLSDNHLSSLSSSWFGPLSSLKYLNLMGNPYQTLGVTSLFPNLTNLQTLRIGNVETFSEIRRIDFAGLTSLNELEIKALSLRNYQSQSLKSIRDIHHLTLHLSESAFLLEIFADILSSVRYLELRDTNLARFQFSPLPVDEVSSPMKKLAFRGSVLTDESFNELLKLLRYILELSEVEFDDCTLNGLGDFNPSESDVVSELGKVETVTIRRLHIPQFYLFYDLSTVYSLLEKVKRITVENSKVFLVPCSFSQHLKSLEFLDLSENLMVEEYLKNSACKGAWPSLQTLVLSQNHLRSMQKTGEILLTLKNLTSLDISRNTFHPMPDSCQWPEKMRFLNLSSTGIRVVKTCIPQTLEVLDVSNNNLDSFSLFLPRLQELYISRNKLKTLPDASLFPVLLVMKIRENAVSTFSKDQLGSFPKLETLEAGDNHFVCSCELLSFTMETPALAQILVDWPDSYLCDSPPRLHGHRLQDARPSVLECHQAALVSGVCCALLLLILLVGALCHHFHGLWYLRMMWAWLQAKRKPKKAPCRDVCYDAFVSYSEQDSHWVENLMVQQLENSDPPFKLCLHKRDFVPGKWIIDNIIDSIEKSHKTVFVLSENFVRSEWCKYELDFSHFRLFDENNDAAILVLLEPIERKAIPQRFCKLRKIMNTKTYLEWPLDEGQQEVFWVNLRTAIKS
The mark [3] stands for this setting: read-out: EC50 (nM) (mouse): EC50 TNF-α release from mouse macrophages, Table 3.

Broadly, the EC50 is the concentration that produces a half-maximal response.

Like-named read-outs stand apart in the source and are kept apart here. Where only a bound is given, the exact number is not on record here.

Take `Nc1ccc(CCCCCCCCNC(=O)[C@@H]2CN(C(=O)c3ccc(C(=O)N4C[C@@H](C(=O)N[C@H]5C[C@@H]5c5ccccc5)[C@H](C(=O)N[C@H]5C[C@@H]5c5ccccc5)C4)cc3)C[C@H]2C(=O)N[C@H]2C[C@@H]2c2ccccc2)cc1` [Compound 27, (3S,4S)—N-(8-(4-Aminophenyl)octyl)-1-(4-((3S,4S)-3,4-bis(((1S,2R)-2-phenylcyclopropyl)carbamoyl)-pyrrolidine-1-carbonyl)benzoyl)-N^4-((1S,2R)-2-phenyl-cyclopropyl)-pyrrolidine-3,4-dicarboxamide]: the Emax stood at 100% on TLR1/TLR2 [1] and 250% at TLR1/TLR2 [2]. Also, the EC50 on TLR1/TLR2 [1] (Table 1) was 0.3 nM; at TLR1/TLR2 [2] (read-out: EC50 (nM) (mouse): EC50 TNF-α release from mouse macrophages, Table 1) it was 6 nM.
On to `O=C(NCCOCCOCCOCCO)[C@@H]1CN(C(=O)c2ccc(C(=O)N3C[C@@H](C(=O)N[C@H]4C[C@@H]4c4ccccc4)[C@H](C(=O)N[C@H]4C[C@@H]4c4ccccc4)C3)cc2)C[C@H]1C(=O)N[C@H]1C[C@@H]1c1ccccc1` [Compound 30, (3S,4S)-1-(4-((3S,4S)-3,4-Bis(((1S,2R)-2-phenyl-cyclopropyl)carbamoyl)pyrrolidine-1-carbonyl)-benzoyl)-N^3-(2-(2-(2-(2-hydroxyethoxy)ethoxy)ethoxy)-ethyl)-N^4-((1S,2R)-2-phenylcyclopropyl)-pyrrolidine-3,4-dicarboxamide], for which the figures for the concentration giving a half-maximal response (EC50) on TLR1/TLR2 [1] (Table 2) and at TLR1/TLR2 [2] were 2000 nM and more than 5000 nM, respectively.
The corresponding values for `O=C(O)CCOCCOCCOCCNC(=O)[C@@H]1CN(C(=O)c2ccc(C(=O)N3C[C@@H](C(=O)N[C@H]4C[C@@H]4c4ccccc4)[C@H](C(=O)N[C@H]4C[C@@H]4c4ccccc4)C3)cc2)C[C@H]1C(=O)N[C@H]1C[C@@H]1c1ccccc1` [Compound 31, 1-((3S,4S)-1-(4-((3S,4S)-3,4-Bis(((1S,2R)-2-phenylcyclopropyl)carbamoyl)pyrrolidine-1-carbonyl)benzoyl)-4-(((1S,2R)-2-phenylcyclopropyl)-carbamoyl)pyrrolidin-3-yl)-1-oxo-5,8,11-trioxa-2-azatetradecan-14-oic acid] are 100 nM and more than 5000 nM.
As for `CC(=O)OCCCCCCCCCCCCNC(=O)[C@@H]1CN(C(=O)c2ccc(C(=O)N3C[C@@H](C(=O)N[C@H]4C[C@@H]4c4ccccc4)[C@H](C(=O)N[C@H]4C[C@@H]4c4ccccc4)C3)cc2)C[C@H]1C(=O)N[C@H]1C[C@@H]1c1ccccc1` [Compound 32, 12-((3S,4S)-1-(4-((3S,4S)-3,4-Bis(((1S,2R)-2-phenyl-cyclopropyl)carbamoyl)pyrrolidine-1-carbonyl)benzoyl)-4-(((1S,2R)-2-phenylcyclopropyl)carbamoyl)pyrrolidine-3-carboxamido)dodecyl acetate], the results for the Emax at TLR1/TLR2 [1] and at TLR1/TLR2 [2] were 130% and 140%, respectively. Also, the EC50 came out at 0.14 nM at TLR1/TLR2 [1] (Table 3) and 1.5 nM at TLR1/TLR2 [2] (setting [3]).
`N#CCC(=O)OCCCCCCCCCCCCNC(=O)[C@@H]1CN(C(=O)c2ccc(C(=O)N3C[C@@H](C(=O)N[C@H]4C[C@@H]4c4ccccc4)[C@H](C(=O)N[C@H]4C[C@@H]4c4ccccc4)C3)cc2)C[C@H]1C(=O)N[C@H]1C[C@@H]1c1ccccc1` [Compound 33, 12-((3S,4S)-1-(4-((3S,4S)-3,4-Bis(((1S,2R)-2-phenylcyclopropyl)carbamoyl)pyrrolidine-1-carbonyl)benzoyl)-4-(((1S,2R)-2-phenylcyclopropyl)-carbamoyl)pyrrolidine-3-carboxamido)dodecyl 2-cyanoacetate]: the Emax at TLR1/TLR2 [1] amounted to 100%; on TLR1/TLR2 [2] it was 120%. For the same molecule, the values for the concentration giving a half-maximal response (EC50) at TLR1/TLR2 [1] (Table 3) and on TLR1/TLR2 [2] (setting [3]) were 0.25 nM and 4.5 nM, respectively.
